From the NIST ThermoML archive (doi:10.1016/j.fluid.2015.09.034)
Numbers after ± are expanded uncertainties.

Details: Liquid, Chromatography

vapor or sublimation pressure (223.14 K): 682.9 ± 53 kPa
vapor or sublimation pressure (298.17 K): 6436.9 ± 500 kPa
vapor or sublimation pressure (303.16 K): 7210.5 ± 560 kPa
Compound: O=C=O [carbon dioxide]
